One block for each molecule: values may come before it.
How the values were obtained:
GST-RORγ = target: T1, GST-RORγ (Homo sapiens, UniProt P51449); experiment: Radioligand binding; conditions: versus 6p
T1 sequence (P51449 269-508 limits assumed): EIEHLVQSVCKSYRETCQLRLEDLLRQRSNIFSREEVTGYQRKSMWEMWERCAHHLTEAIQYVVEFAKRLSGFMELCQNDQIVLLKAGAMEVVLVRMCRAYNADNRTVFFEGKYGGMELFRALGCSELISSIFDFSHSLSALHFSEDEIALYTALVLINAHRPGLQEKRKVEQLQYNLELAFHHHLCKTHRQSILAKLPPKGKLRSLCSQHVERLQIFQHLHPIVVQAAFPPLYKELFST

RORα = target: T2, RORα (Homo sapiens, UniProt P35398); experiment: Gal4 DBD-NR LBD cotransfection assay, RORα; assay type: cell-based; conditions: data not shown
T2 sequence (P35398 272-510 limits assumed): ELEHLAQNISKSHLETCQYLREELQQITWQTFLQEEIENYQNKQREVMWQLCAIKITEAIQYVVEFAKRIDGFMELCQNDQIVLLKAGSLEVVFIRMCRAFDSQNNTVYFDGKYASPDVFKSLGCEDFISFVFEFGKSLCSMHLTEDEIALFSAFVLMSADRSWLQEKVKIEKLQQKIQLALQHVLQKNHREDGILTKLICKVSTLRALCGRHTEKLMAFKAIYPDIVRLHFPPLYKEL

LXRα = target: T3, LXRα (Homo sapiens, UniProt Q13133); experiment: Gal4 DBD-NR LBD cotransfection assay, LXRα; assay type: cell-based; conditions: data not shown
T3 sequence (Q13133 209-447 limits assumed): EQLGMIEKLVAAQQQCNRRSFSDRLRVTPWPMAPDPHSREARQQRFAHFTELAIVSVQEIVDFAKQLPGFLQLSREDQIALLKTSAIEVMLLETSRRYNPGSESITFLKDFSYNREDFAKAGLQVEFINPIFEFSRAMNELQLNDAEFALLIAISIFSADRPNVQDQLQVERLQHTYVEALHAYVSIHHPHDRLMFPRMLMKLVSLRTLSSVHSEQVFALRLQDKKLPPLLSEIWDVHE

FXR = target: T4, FXR (Homo sapiens, UniProt Q96RI1); experiment: Gal4 DBD-NR LBD cotransfection assay, FXR; assay type: cell-based; conditions: data not shown
T4 sequence (Q96RI1 262-486 limits assumed): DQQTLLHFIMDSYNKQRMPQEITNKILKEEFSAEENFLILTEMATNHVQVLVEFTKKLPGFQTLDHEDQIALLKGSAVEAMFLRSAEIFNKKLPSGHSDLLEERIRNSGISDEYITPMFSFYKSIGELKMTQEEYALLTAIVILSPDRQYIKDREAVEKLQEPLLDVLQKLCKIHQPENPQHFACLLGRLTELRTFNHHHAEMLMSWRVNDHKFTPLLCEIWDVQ

Solubility = assay type: physicochemical; conditions: 20hr
p450 2C9 = p450 2C9 (Homo sapiens, UniProt P11712); experiment: p450 inhibition 2C9; assay type: in vitro ADME; conditions: 10 µM drug
p450 2C9, sequence (P11712 whole entry): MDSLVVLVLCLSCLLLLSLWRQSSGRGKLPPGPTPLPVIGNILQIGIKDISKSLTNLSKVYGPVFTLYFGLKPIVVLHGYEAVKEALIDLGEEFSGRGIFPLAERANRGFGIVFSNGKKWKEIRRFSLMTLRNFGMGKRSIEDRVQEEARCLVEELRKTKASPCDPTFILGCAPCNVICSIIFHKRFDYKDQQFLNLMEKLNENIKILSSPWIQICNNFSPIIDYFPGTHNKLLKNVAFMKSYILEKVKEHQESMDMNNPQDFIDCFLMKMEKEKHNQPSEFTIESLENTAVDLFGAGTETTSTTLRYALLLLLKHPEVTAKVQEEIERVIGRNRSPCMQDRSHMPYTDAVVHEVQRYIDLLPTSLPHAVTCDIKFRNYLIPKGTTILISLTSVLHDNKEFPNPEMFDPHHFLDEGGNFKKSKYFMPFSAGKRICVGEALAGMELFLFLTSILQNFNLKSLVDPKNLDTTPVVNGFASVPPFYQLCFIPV

p450 3A4 = p450 3A4 (Homo sapiens, UniProt P08684); experiment: p450 inhibition 3A4; assay type: in vitro ADME; conditions: 10 µM drug
p450 3A4, sequence (P08684 whole entry): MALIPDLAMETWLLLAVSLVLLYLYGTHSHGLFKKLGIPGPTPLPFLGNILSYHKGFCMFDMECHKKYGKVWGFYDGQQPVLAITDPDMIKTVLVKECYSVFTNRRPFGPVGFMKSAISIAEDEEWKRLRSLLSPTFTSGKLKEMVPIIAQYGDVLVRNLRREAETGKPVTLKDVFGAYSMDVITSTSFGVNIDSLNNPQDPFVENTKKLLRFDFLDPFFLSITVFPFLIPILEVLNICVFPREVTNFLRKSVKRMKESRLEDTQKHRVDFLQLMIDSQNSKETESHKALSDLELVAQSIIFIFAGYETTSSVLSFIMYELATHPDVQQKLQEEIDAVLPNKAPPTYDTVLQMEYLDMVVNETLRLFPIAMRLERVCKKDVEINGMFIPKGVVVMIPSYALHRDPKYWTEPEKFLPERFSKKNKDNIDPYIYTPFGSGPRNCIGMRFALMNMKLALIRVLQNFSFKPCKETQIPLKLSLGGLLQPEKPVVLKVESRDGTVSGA

[1] = CNS exposure: plasma and brain levels in mice; conditions: t = 6h

Compound: COc1ccc(C(CC(=O)NC2CCCC2)c2c(O)cc(OC)cc2OC)cc1 (centres unmarked) [Compound 6n]
- RORγ activity in words (binding assay) (GST-RORγ): loss of activity

Compound: COc1ccc(C(CC(=O)N2CCOCC2)c2c(O)cc(OC)cc2OC)cc1 (centres unmarked) [Compound 6l]
- RORγ activity in words (binding assay) (GST-RORγ): loss of activity

Compound: COc1cc(O)c(C(CC(=O)N2CC(C)CC(C)C2)c2ccc3c(c2)OCO3)c(OC)c1 (centres unmarked) [Compound 1]
- activity on RORα (RORα): did not show any activity
- activity on LXRα (LXRα): did not show any activity
- activity on FXR (FXR): did not show any activity
- Solubility pH 7.4 (Solubility; 100 µM solution shaken in PBS pH 7.4, room temperature): low to modest
- Solubility pH 5.0 (Solubility; 100 µM solution shaken in Sodium Citrate Buffer pH 5.0, room temperature): low to modest
- p450 % inhibition 2C9 (p450 2C9): high
- p450 % inhibition 3A4 (p450 3A4): high
- [Plasma] ([1]; 10 mg/kg IP in 10:10:80 DMSO:Tween:water): limited
- b.p. (%) brain penetration ([1]; 10 mg/kg IP): good

Results, then the molecule that gave them:

- RORγ activity in words (binding assay) (GST-RORγ): loss of activity
Compound: COc1ccc(C(CC(=O)N2CCCC2)c2c(O)cc(OC)cc2OC)cc1 (centres unmarked) [Compound 6o]

- RORγ activity in words (binding assay) (GST-RORγ): loss of activity
Compound: COc1ccc(C(CC(=O)N2CCCCC2)c2c(O)cc(OC)cc2OC)cc1 (centres unmarked) [Compound 6m]

- RORγ activity in words (binding assay) (GST-RORγ): loss of activity
Compound: COc1ccc(C(CC(=O)NCc2ccccc2)c2c(O)cc(OC)cc2OC)cc1 (centres unmarked) [Compound 6k]

From PMC3534870 (Bioorganic & medicinal chemistry letters, 2012)
